Activity calls are given as the source filed them.
How the values were obtained:
[1] = test system: HEK293; assay: NOD2 signaling inhibitors in MDP-stimulated cells, cell-based, uHTS, luminescence (AID 2001); assay type: functional; conditions: Homo sapiens
[2] = test system: HEK293; assay: NOD1 signaling inhibitors, primary screen, cell-based, luminescence, uHTS (AID 1578); assay type: functional; conditions: Homo sapiens
[3] = test system: HEK293; assay: cells; assay type: functional, cell-based; conditions: Homo sapiens
[4] = test system: HEK293; assay: cells; assay type: functional, cell-based; conditions: Homo sapiens; remark: listed apart in the source
[5] = test system: HEK293; assay: cells; conditions: Homo sapiens
[6] = Luminescence Cell-Based Dose Response HTS to Identify Inhibitors of 5'UTR Stem-Loop Driven Prion Protein mRNA Translation in H4 Neuroglioblastoma Cells. [Related pubchem assays: 1827 (Project Summary), 1813 (Primary HTS)]; assay type: functional
[7] = inhibitors of SNCA 5'UTR-driven reporter translation, confirmation, H4 neuroglioma cells, luminescence (AID 1988); assay type: functional, cell-based
[8] = inhibitors of firefly luciferase expression or activity, dose response, H4 neuroglioma cells, luminescence (AID 1990); assay type: functional, cell-based
[9] = test system: HEK293; assay: cells; conditions: Homo sapiens; remark: listed apart in the source
[10] = test system: Escherichia coli; assay: microbe, parasite or virus in culture
[11] = target: Mu-type opioid receptor (Homo sapiens, UniProt P35372); assay: (§1) Counterscreen for agonists of heterodimerization of the mu 1 (OPRM1) and delta 1 (OPRD1) opioid receptors: Luminescence-based cell-based high throughput dose response assay to identify agonists of OPRM1 homodimerization.; assay type: functional
[12] = target: Delta-type opioid receptor (Homo sapiens, UniProt P41143); assay: as §1, with “of OPRD1” for “of OPRM1”, “homodimerization. [Related pubchem assays (depositor defined):AID504326, AID504355, AID504692, AID504904, AID504905]” for “homodimerization.”; assay type: functional
[13] = target: 5-hydroxytryptamine receptor 5A (Homo sapiens, UniProt P47898); assay: Counterscreen for agonists of OPRM1-OPRD1 heterodimerization: luminescence-based cell-based high throughput dose response assay to identify agonists of 5-hydroxytryptamine (serotonin) 5A receptor (HTR5A). [Related pubchem assays (depositor defined):AID504326, AID504355, AID504692, AID504904, AID504905]; assay type: functional
[14] = target: Cytochrome P450 2D6 (Homo sapiens, UniProt P10635);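 also: CYP2D6 member of a cytochrome P450 panel assay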
[15] = target: T1, RNA-binding protein pos-1 (Caenorhabditis elegans, UniProt G5EF15); assay: inhibitors of POS-1/mex-3 RNA binding, dose response, biochemical, fluorescence polarization (AID 1964);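 also: purified POS-1 fused to maltose binding protein made in E. coli; potency of compounds blocking POS-1 binding to fluorescent RNA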
T1 sequence (G5EF15 whole entry): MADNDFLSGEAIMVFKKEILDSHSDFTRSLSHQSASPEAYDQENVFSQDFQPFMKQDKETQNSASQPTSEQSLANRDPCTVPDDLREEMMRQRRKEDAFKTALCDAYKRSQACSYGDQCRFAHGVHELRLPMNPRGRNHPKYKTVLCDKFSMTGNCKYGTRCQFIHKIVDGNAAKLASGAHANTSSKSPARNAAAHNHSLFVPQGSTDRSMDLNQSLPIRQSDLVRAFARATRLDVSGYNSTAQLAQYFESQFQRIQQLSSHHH

[16] = target: T2, Zinc finger protein mex-5 (Caenorhabditis elegans, UniProt Q9XUB2); assay: MEX-5/TCR-2 RNA interaction inhibitors, dose response, biochemical, C. elegans, fluorescence polarization (AID 1960)
T2 sequence (Q9XUB2 whole entry): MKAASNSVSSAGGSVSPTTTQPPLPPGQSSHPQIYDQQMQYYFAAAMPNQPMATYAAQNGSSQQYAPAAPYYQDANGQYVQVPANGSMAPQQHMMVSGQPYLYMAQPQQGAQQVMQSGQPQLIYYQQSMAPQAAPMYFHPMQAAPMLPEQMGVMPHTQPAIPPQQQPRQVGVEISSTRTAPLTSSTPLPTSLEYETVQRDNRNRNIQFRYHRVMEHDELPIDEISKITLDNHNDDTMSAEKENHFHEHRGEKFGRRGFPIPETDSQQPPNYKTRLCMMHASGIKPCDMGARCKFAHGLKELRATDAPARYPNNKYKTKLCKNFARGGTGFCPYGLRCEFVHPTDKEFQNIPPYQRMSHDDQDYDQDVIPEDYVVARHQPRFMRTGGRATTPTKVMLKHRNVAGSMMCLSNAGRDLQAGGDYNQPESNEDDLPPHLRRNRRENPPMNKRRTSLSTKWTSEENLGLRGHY

[17] = target: T3, Endoribonuclease toxin MazF (Escherichia coli K-12, UniProt P0AE70); assay: fluorescent RNA oligo signal without MazF, dose response, counter-screen for MazEF activator project, biochemical, fluorescence, single-stranded RNase substrate (AID 588502); assay type: functional
T3 sequence (P0AE70 whole entry): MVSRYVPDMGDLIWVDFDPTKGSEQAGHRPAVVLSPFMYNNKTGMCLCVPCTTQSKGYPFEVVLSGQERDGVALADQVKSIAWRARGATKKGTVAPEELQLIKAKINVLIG

[18] = target: T3, Endoribonuclease toxin MazF; assay: MazF toxin RNase activators, dose response, biochemical, fluorescence, single-stranded RNA substrate, uHTS hits (AID 588481); assay type: functional
[19] = C. albicans growth with fluconazole, confirmation, fluorescence, retest (AID 2467); assay type: functional, cell-based
[20] = NIH-3T3 fibroblast cytotoxicity, dose response, cytotoxicity control, cell-based, fluorescence, Alamar Blue, secondary assay (AID 2327); assay type: functional;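 also: NIH-3T3 mouse fibroblasts cultured with fluconazole at 8 µg/mL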
[21] = cells; assay type: functional, cell-based; conditions: HEK-CNG
[22] = target: T4, Galanin receptor type 3 (Homo sapiens, UniProt O60755); assay: Fluorescence-based cell-based primary high throughput dose response assay to identify antagonists of the Galanin Receptor 3 (GalR3).; assay type: functional
T4 sequence (O60755 whole entry): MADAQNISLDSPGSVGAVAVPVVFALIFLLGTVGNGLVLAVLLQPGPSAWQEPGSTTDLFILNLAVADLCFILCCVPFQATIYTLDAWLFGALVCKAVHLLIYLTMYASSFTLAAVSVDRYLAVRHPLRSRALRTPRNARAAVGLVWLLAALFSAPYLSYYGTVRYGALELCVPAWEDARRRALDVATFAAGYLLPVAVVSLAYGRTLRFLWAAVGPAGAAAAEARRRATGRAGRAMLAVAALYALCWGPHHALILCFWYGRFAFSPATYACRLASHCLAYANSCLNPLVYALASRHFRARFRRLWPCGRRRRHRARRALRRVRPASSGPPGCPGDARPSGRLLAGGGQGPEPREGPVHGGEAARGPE

[23] = target: Cytochrome P450 3A4 (Homo sapiens, UniProt P08684);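 also: CYP3A4 tested as one member of a cytochrome P450 panel screen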
[24] = target: Cytochrome P450 2C19 (Homo sapiens, UniProt P33261); assay: Cytochrome panel assay with activity outcomes. Panel member name: p450-cyp2c19 Compounds with AC50 equal or less than 10 uM are considered active; assay type: functional; conditions: read-out: AC50
[25] = target: T5, Cytochrome P450 1A2 (Homo sapiens, UniProt P05177);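 also: PubChem cytochrome P450 panel assay, CYP1A2 panel member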
T5 sequence (P05177 whole entry): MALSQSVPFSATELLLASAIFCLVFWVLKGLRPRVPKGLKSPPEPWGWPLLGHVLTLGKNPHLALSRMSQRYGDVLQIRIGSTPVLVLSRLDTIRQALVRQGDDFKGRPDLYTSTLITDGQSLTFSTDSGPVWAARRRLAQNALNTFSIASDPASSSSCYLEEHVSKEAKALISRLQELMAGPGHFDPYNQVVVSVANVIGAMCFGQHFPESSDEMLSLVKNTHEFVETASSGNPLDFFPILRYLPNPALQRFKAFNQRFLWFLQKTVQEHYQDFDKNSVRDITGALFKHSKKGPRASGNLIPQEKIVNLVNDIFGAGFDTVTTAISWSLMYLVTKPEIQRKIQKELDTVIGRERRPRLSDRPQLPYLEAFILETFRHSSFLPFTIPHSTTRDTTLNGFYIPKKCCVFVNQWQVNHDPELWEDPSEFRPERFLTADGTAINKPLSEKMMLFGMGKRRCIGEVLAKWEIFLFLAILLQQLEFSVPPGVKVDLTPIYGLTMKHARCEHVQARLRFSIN

Cytochrome P450 2D6, sequence (P10635 whole entry, the tested form may be a part): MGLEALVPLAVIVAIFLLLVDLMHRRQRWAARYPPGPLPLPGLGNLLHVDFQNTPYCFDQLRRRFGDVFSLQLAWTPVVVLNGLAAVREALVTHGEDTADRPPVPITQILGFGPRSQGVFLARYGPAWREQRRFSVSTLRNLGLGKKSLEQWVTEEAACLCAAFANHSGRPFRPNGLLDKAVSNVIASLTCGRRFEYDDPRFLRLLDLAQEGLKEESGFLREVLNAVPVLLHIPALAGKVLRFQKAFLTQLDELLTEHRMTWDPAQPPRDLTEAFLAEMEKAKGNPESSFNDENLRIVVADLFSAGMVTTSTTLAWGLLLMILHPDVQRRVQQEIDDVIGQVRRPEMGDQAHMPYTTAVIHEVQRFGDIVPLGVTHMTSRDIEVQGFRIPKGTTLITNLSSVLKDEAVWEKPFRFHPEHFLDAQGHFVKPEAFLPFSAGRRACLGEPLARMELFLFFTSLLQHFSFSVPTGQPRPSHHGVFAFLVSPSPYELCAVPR
5-hydroxytryptamine receptor 5A, sequence (P47898 whole entry): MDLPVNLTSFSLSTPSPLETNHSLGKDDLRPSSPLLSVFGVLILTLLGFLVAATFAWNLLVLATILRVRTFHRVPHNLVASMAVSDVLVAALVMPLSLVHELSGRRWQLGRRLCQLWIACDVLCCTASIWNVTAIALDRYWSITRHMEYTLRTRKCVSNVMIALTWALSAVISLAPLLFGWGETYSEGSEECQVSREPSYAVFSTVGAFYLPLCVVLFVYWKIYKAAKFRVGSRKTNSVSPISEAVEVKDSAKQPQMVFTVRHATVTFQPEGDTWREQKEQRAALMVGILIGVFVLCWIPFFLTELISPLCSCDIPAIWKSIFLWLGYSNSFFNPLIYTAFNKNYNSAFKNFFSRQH
Delta-type opioid receptor, sequence (P41143 whole entry): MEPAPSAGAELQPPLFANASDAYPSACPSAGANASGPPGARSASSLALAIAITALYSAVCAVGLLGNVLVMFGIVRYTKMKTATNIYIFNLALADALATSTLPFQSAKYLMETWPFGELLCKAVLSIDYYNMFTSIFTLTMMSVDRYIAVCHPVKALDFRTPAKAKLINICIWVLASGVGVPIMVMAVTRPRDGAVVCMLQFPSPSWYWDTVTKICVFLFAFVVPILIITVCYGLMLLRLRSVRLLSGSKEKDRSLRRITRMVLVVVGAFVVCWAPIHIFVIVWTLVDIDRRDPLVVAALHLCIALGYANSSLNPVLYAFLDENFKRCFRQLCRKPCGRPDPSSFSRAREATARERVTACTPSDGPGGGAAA
Mu-type opioid receptor, sequence (P35372 whole entry): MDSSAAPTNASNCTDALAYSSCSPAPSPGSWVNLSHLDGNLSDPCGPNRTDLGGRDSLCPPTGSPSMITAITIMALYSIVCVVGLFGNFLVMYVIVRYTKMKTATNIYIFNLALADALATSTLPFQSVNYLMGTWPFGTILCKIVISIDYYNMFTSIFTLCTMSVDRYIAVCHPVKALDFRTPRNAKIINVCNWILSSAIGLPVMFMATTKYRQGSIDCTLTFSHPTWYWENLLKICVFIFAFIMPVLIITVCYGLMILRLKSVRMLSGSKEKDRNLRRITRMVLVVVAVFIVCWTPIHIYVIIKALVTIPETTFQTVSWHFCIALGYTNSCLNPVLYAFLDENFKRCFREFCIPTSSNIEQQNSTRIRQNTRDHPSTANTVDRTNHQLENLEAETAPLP
Cytochrome P450 3A4, sequence (P08684 whole entry): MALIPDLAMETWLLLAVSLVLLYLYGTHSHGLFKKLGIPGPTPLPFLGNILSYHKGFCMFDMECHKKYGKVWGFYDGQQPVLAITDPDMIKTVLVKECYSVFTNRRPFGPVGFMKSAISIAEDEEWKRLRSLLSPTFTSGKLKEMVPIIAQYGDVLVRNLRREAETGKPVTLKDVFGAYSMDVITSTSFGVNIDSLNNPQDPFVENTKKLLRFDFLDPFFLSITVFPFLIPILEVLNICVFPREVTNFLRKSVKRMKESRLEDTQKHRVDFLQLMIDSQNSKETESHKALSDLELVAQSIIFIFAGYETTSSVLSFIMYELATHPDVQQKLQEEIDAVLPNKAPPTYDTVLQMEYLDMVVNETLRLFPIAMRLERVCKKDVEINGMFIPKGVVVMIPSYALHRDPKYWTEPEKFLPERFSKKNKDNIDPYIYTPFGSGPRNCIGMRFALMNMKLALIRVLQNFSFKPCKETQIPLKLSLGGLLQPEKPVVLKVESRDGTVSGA
Cytochrome P450 2C19, sequence (P33261 whole entry): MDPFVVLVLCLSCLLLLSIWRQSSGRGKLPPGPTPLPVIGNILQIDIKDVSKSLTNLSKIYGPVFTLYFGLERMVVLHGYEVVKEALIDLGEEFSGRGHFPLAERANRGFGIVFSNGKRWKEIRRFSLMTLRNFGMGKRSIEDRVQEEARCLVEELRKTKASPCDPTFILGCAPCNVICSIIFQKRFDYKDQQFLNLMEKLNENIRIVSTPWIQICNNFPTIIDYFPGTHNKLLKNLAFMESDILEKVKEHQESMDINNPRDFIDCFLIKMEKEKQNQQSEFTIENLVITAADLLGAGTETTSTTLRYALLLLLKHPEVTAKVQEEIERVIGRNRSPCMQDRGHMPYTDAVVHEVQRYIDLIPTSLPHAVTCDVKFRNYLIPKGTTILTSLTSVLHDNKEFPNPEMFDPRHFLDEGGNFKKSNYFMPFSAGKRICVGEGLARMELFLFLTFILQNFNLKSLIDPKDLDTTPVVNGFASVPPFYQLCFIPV

With `O=C(Nc1ccc(Br)c2ccccc12)c1ccc2ccccc2c1O` the IC50 [1] was 1.91 µM (active), the EC50 [2] was 0.79 µM (active) and the IC50 [3] was 2.6 µM (active). The IC50 [4] was 13.7 µM (active).
In the case of `COc1ccc(-c2nn3c(C4CCCCC4)nnc3s2)cc1OC`, the EC50 [5] is reported as > 59.7 µM (inactive), the EC50 [6] is reported as 18.1 µM (active) and the EC50 [7] is reported as 13.5 µM (active). For the same compound, the EC50 [8] was 15.5 µM (active) and the EC50 [9] was > 59.7 µM (inactive).
For `CC(C)OC(=O)c1nn2c(C(F)(F)F)cc(-c3ccco3)nc2c1Cl`, the AC50 [10] was 43.9 µM (active).
For `C=CCNC(=O)c1ccccc1NC(=O)Nc1ccccc1`, the AC50 [10] was 44.4 µM (active).
In the case of `O=C(Nc1ccc(F)c(Cl)c1)c1cccnc1`, the AC50 [10] is reported as 61.5 µM (active).
With `O=S(=O)(NC1CC1)c1ccc(S(=O)(=O)N2CCCC3(CCCCC3)C2)cc1` the EC50 [11] was > 92.5 µM (inactive), the EC50 [12] was > 92.5 µM (inactive) and the EC50 [13] was > 92.5 µM (inactive).
In the case of `c1cncc(CNCc2cccnc2)c1`, the AC50 [14] is reported as “inconclusive”.
In the case of `COc1ccc(NC(=O)c2sc3nc(-c4cccnc4)ccc3c2N)cc1OC`, the EC50 [15] is reported as 115 µM (inconclusive), the EC50 [16] is reported as > 300 µM (inconclusive) and the EC50 [17] is reported as 54.5 µM (inactive). The EC50 [18] was > 99 µM (inactive).
In the case of `Cc1ccc(-c2nc3sc(C#N)c(N)n3c(=O)c2C#N)cc1`, the EC50 [19] is reported as 1.72 µM (active), the EC50 [20] is reported as > 160 µM (inactive) and the EC50 [17] is reported as > 99 µM (inactive). For the same compound, the EC50 [18] was > 99 µM (inactive).
In the case of `COc1ccc(NS(=O)(=O)c2ccc(NC(=O)c3ccc(CN4CCOCC4)cc3)cc2)cc1`, the EC50 [21] is reported as > 29.9 µM (inactive), the IC50 [1] is reported as 7.65 µM (active) and the EC50 [2] is reported as 4.22 µM (active). For the same compound, the IC50 [22] was 2.94 µM (active), the IC50 [3] was 5.35 µM (active) and the IC50 [4] was > 20 µM (inactive).
For `CCc1ccc(NC(=O)CCn2nc(C)c(S(=O)(=O)N3CCCCC3)c2C)cc1`, the EC50 [5] was > 59.7 µM (inactive) and the EC50 [9] was > 59.7 µM (inactive).
In the case of `O=C1C=CC(O)C2(CO)OC12` (stereo unspecified), the EC50 [5] is reported as > 59.6 µM (inactive) and the EC50 [9] is reported as > 59.6 µM (inactive).
In the case of `COc1ccc(-c2nc(CN3CCC(C(=O)NC4CCCc5ccccc54)CC3)c(C)o2)cc1OC` (stereo unspecified), the EC50 [11] is reported as 20.8 µM (inactive), the EC50 [12] is reported as > 92.4 µM (inactive) and the EC50 [13] is reported as > 92.4 µM (inactive).
With `CC(C)C(=O)N/N=C/c1ccc(OCc2ccccc2)cc1` the AC50 [23] was “inconclusive”, the AC50 [14] was “inconclusive” and the AC50 [24] was 10 µM (inconclusive). For the same compound, the AC50 [25] was 15.8 µM (inconclusive).
